Among the data in BindingDB's records for PubMed 37116763 (n/a, 2023) are EC50 values, retold here.

In the experiment the target is T1, Nuclear factor erythroid 2-related factor 2 (Homo sapiens, UniProt Q16236).
T1 sequence (Q16236 whole entry): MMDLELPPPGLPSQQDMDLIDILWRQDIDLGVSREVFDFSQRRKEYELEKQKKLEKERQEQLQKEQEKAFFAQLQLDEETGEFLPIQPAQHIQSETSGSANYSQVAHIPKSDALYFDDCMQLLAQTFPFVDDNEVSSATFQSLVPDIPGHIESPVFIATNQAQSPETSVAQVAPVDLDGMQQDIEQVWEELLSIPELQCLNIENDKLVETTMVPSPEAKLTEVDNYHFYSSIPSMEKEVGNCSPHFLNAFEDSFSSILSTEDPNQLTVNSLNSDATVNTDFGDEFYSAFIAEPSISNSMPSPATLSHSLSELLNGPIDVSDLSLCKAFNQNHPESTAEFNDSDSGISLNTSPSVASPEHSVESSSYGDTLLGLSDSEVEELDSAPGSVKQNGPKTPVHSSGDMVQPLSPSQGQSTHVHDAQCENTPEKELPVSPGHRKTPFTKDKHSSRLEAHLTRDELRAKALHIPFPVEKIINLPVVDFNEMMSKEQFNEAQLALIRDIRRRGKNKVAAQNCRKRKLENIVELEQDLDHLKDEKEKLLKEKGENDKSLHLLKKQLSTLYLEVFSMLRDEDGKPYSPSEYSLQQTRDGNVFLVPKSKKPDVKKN
The experiment in a line: Activation of Nrf2 in human IMR-32-ARE-Luc cells by Bright-Glo luciferase assay.

A value given as a limit tells only on which side of the number the result lay.

Regarding `CC(C)CN[C@H]1CS(=O)(=O)C[C@@H]1C(=O)Nc1ccc(Cl)c(Cl)c1`, the EC50 was over 20 µM.
The value for `O=C(O)CCCCCN[C@H]1CS(=O)(=O)C[C@@H]1S(=O)(=O)c1ccc(Cl)c(Cl)c1` was over 20 µM; that for `O=C(O)CCCN[C@H]1CS(=O)(=O)C[C@@H]1S(=O)(=O)c1ccc(Cl)c(Cl)c1` was over 20 µM.

For orientation: EC50 means the concentration that produces a half-maximal response.
